The values that follow come from US20260306502A1, “MITOCHONDRIAL UNCOUPLERS FOR TREATMENT OF METABOLIC DISEASES AND CANCER” (Mito Biopharma, LLC, priority 2022, published 2026).

For orientation: AUC(0-t) means the area under the concentration-time curve up to a stated or last time point. Read a low AUC(0-t) as less exposure. What is called AUC is concentration integrated over time.

In data set [1] the test system is cultured mammalian cells, the NIH-3T3 cells, C2C12 cells, and other mammalian cell lines. Briefly: Mitochondrial membrane potential (MMP) assay, TMRE (or DilC1(5)) staining, related to OCR induction. The format is cell-based. Particulars: ratio of concentration leading to 10% MMP retention (90% MMP loss, TMRE) to minimal concentration leading to OCR increase. As for the experimental part: Mitochondrial membrane potential assay was performed using the standard TMRE (tetramethylrhodamine ethyl ester) staining method with cultured mammalian cells, the NIH-3T3 cells, C2C12 cells, and other mammalian cell lines. Cells were seeded in 6-well plates and cultured in DMEM medium supplemented with 10% fetal bovine serum and 2 mM glutamine. Cells were allowed to grow to the logarithmic growth phase prior to experiments. The cells were treated with each individual compound at various concentrations for two hours, followed by staining with TMRE at a final concentration of 100 nM for 15 minutes. The cells were then washed once with PBS, and examined under fluorescence microscopy. Cells treated with various concentrations of niclosamide ethanolamine were used as a positive control.
In some examples, mitochondrial membrane potential was measured with DilC1(5) staining. Briefly, DilC1(5) was added to the cells to 50 nM final concentration and the cells were incubated at 37° C., 5% CO2, for 15 to 30 minutes. Cells were washed once by adding 2 mL of warm phosphate-buffered saline (PBS). Mitochondrial staining was determined by fluorescence microscopy with 633 nm excitation using standard filters for far-red emission.
Using the ratio between C10% TMRE (the concentration at which 10% MMP remains, i.e. 90% MMP is lost) and Cmin-OCR (the concentration at which minimal OCR induction is observed), we categorized the MMP-retaining uncouplers into two groups.

Data set [2] relates to C2C12 cells. Briefly: Mitochondrial uncoupling activity by oxygen consumption rate (OCR) assay, Seahorse, in presence of oligomycin. Type of data set: cell-based, mouse. Particulars: for minimal effective concentration: Mus musculus, C2C12. As for the experimental part:
By definition, mitochondrial uncoupling is the decoupling of mitochondrial electron transport chain activity (mitochondrial oxidation) from ATP synthesis by mitochondrial ATP synthase. Technically, mitochondrial uncoupling activity is defined by the ability of a chemical compound to induce oxygen consumption of cells or isolated mitochondria in the presence of a mitochondrial ATP synthase inhibitor such as oligomycin. Accordingly, mitochondrial uncoupling activity was determined by oxygen consumption rate assay with a Seahorse XF96 or a Seahorse XF24 instrument following the vendor's instruction, using mouse myoblast C2C12 cells grown in a medium containing 10% fetal bovine serum. OCR was measured stepwise under the following conditions: first under normal growth conditions; then. OCR was measured after oligomycin was added to reach a final concentration of 2.5 μM); then OCR was measured after the compound was further added at varying concentrations. Finally, rotenone and antimycin A were added to confirm that the measurement was mitochondrial oxygen consumption (rotenone and […] mitochondrial electron transport chain inhibitors).
COCR-min the minimal concentration required for each compound to induce OCR in the presence of oligomycin, of disclosed compounds, was also determined by varying the final concentration of the compound added to the Seahorse OCR analysis experiment as described above (FIG. 2, varying testing compound concentration). Table 8 summarizes the mitochondrial uncoupling activity of disclosed compounds, as represented by COCR-min.

Data set [3] can be described thus: PO pharmacokinetic study, oral exposure (Example B3). Type of data set: in vivo. Particulars: blood, po; for AUC at 24 h: 10 mg/kg gavage. The method, then: The blood concentration of the compound was then determined at 0 (pre-dosing), 5 min, 15 min, 30 min, 1 hr, 2 hr, 4 hr, 8 hr, 24 hr time points by LC-MS/MS analysis (See Tables 1 and 2, vide supra).
Setting [4] is: in the presence of oligomycin 2.5 μM, read-out: COCR-min: minimal concentration increasing OCR in the presence of oligomycin.
[5] abbreviates: minimal concentration leading to OCR increase, read-out: Activity (Cmin-OCR).

Where two headings read alike, the source gives them in different places.

Consider `O=C(Nc1ccc(C(F)(F)F)cc1Cl)c1cc(Cl)ccc1O`, for which the C10%TMRE/Cmin-OCR result in data set [1] was “[drawing 351]”.

Regarding `O=C(Nc1ccc(C(F)(F)F)nc1)c1cc(Cl)ccc1O`, in data set [1], the C10%TMRE/Cmin-OCR entry is “[drawing 354]”. With `COCCOCc1cc(Cl)cc(C(=O)Nc2nc3ccc(C(F)(F)F)cc3s2)c1O` [Compound 2, 5-chloro-2-hydroxy-3-((2-methoxyethoxy)methyl)-N-(6-(trifluoromethyl)benzo[d]thiazol-2-yl)benzamide], in data set [2] (setting [4]), the minimal effective concentration is less than 5 µM. In data set [3] (10 mg/kg), the AUC(0-t) at 24 h was 485000 ng·h/mL. Also, the AUC at 24 h in data set [3] was greater than 120000 ng·h/mL.

For the compound `COCCN(C)Cc1cc(Cl)cc(C(=O)Nc2nc3ccc(C(F)(F)F)cc3s2)c1O` [Compound 3, 5-chloro-2-hydroxy-3-(((2-methoxyethyl)(methyl)amino)methyl)-N-(6-(trifluoromethyl)benzo[d]thiazol-2-yl)benzamide], the minimal effective concentration in data set [2] (setting [4]) is less than 5 µM. The compound also came in with an AUC at 24 h in data set [3] of 10000 to 30000 ng·h/mL.

On to `COCCOCc1cc(Cl)cc(C(=O)Nc2ccc(C(F)(F)F)cc2Cl)c1O` [Compound 4, 5-chloro-N-(2-chloro-4-(trifluoromethyl)phenyl)-2-hydroxy-3-((2-methoxyethoxy)methyl)benzamide], for which the minimal effective concentration in data set [2] (setting [4]) is less than 5 µM. The same compound yielded an AUC at 24 h in data set [3] of 30000 to 60000 ng·h/mL. For `COCc1cc(Cl)cc(C(=O)Nc2nc3ccc(C(F)(F)F)cc3s2)c1O` [Compound 9, 5-chloro-2-hydroxy-3-(methoxymethyl)-N-(6-(trifluoromethyl)benzo[d]thiazol-2-yl)benzamide], the minimal effective concentration in data set [2] (setting [4]) was less than 5 µM. In addition, in data set [3] (10 mg/kg), the AUC(0-t) at 24 h was found to be 180000 ng·h/mL. This compound returned an exposure (AUC) at 24 h in data set [3] greater than 120000 ng·h/mL. On to `O=C(Nc1nc2ccc(C(F)(F)F)cc2s1)c1cc(Cl)cc(C2CCOC2)c1O` (centres unmarked) [Compound 14, 5-chloro-2-hydroxy-3-(tetrahydrofuran-3-yl)-N-(6-(trifluoromethyl)benzo[d]thiazol-2-yl)benzamide], for which, in data set [2] (setting [4]), the minimal effective concentration is less than 5 µM. For the same compound, in data set [3], the AUC at 24 h is greater than 120000 ng·h/mL. `Cl.O=C(Nc1nc2ccc(C(F)(F)F)cc2s1)c1cc(Cl)cc(CCN2CCOCC2)c1O` [Compound 17, 5-chloro-2-hydroxy-3-(2-morpholinoethyl)-N-(6-(trifluoromethyl)benzo[d]thiazol-2-yl)benzamide]: in data set [2] (setting [4]), the minimal effective concentration is less than 5 µM. Further, the AUC at 24 h in data set [3] lay within 10000 to 30000 ng·h/mL. In the case of `O=C(Nc1nc2ccc(C(F)(F)F)cc2s1)c1cc(Cl)cc(CN2CCCCC2)c1O` [Compound 26, 5-chloro-2-hydroxy-3-(piperidin-1-ylmethyl)-N-(6-(trifluoromethyl)benzo[d]thiazol-2-yl)benzamide], in data set [2] (setting [4]), the minimal effective concentration is less than 5 µM. Further, in data set [3], the AUC at 24 h fell in the range of 10000 to 30000 ng·h/mL.

Regarding `O=C(Nc1nc2ccc(C(F)(F)F)cc2s1)c1cc(Cl)cc(CN2CCC2)c1O` [Compound 27, 3-(azetidin-1-ylmethyl)-5-chloro-2-hydroxy-N-(6-(trifluoromethyl)benzo[d]thiazol-2-yl)benzamide], the minimal effective concentration in data set [2] (setting [4]) is less than 5 µM. Also, the AUC at 24 h in data set [3] is 30000 to 60000 ng·h/mL. Take `O=C(Nc1nc2ccc(C(F)(F)F)cc2s1)c1cc(Cl)ccc1O` [Compound 31 in WO 2016/081599, reference compound]: the AUC(0-t) at 24 h in data set [3] (20 mg/kg) was roughly 2400 ng·h/mL. `COC1CCN(Cc2cc(Cl)cc(C(=O)Nc3nc4ccc(C(F)(F)F)cc4s3)c2O)C1` (centres unmarked) [Compound 32, 5-chloro-2-hydroxy-3-((3-methoxypyrrolidin-1-yl)methyl)-N-(6-(trifluoromethyl)benzo[d]thiazol-2-yl)benzamide]: the minimal effective concentration in data set [2] (setting [4]) is less than 5 µM. This compound registered an AUC at 24 h in data set [3] of 30000 to 60000 ng·h/mL.

As for `COCCOCc1cc(C(F)(F)F)cc2sc(NC(=O)c3cc(Cl)cc(CN4CCOCC4)c3O)nc12` [Compound 65, 5-chloro-2-hydroxy-N-(4-((2-methoxyethoxy)methyl)-6-(trifluoromethyl)benzo[d]thiazol-2-yl)-3-(morpholinomethyl)benzamide], the minimal effective concentration in data set [2] (setting [4]) was less than 5 µM. This compound also had an AUC at 24 h in data set [3] of 60000 to 120000 ng·h/mL. Consider `COCCOCc1cc(C(F)(F)F)cc2sc(NC(=O)c3cc(Cl)cc(CN4CCCCC4)c3O)nc12` [Compound 66, 5-chloro-2-hydroxy-N-(4-((2-methoxyethoxy)methyl)-6-(trifluoromethyl)benzo[d]thiazol-2-yl)-3-(piperidin-1-ylmethyl)benzamide], for which the minimal effective concentration in data set [2] (setting [4]) was less than 5 µM. In addition, in data set [3], the AUC at 24 h lay in the range of 30000 to 60000 ng·h/mL. As to `COCCN(CCOC)Cc1cc(Cl)cc(C(=O)Nc2nc3c(COC)cc(C(F)(F)F)cc3s2)c1O` [Compound 69, 3-((bis(2-methoxyethyl)amino)methyl)-5-chloro-2-hydroxy-N-(4-(methoxymethyl)-6-(trifluoromethyl)benzo[d]thiazol-2-yl)benzamide], the minimal effective concentration in data set [2] (setting [4]) was less than 5 µM. Also, the “effect on oxygen consumption rate (OCR)” value in data set [2] (in words) was “increase OCR in the presence of oligomycin”. In data set [3], this compound gave an AUC at 24 h of 10000 to 30000 ng·h/mL. Consider `Cc1cc(Cl)cc(C(=O)Nc2nc3c(CN4CCN(C)CC4)cc(C(F)(F)F)cc3s2)c1O` [Example 78, 5-chloro-2-hydroxy-3-methyl-N-(4-((4-methylpiperazin-1-yl)methyl)-6-(trifluoromethyl)benzo[d]thiazol-2-yl)benzamide], for which the minimal effective concentration in data set [2] (setting [4]) was less than 5 µM. For the same compound, the AUC(0-t) at 24 h in data set [3] (10 mg/kg) amounted to 58400 ng·h/mL. In data set [3], this compound displayed an AUC at 24 h of 30000 to 60000 ng·h/mL.

`C[C@@H]1CN(Cc2cc(Cl)cc(C(=O)Nc3nc4c(CN5CCN(C)CC5)cc(C(F)(F)F)cc4s3)c2O)C[C@H](C)O1` [Example 79, 5-chloro-3-((cis-2,6-dimethylmorpholino)methyl)-2-hydroxy-N-(4-((4-methylpiperazin-1-yl)methyl)-6-(trifluoromethyl)benzo[d]thiazol-2-yl)benzamide]: in data set [2] (setting [4]), the minimal effective concentration is less than 5 µM. For the compound `CCC(=O)NCc1cc(C(F)(F)F)cc2sc(NC(=O)c3cc(Cl)cc(C)c3O)nc12` [Example 90, 5-chloro-2-hydroxy-3-methyl-N-(4-(propionamidomethyl)-6-(trifluoromethyl)benzo[d]thiazol-2-yl)benzamide], the minimal effective concentration in data set [2] (setting [4]) was in the range of 5 to 10 µM. Consider `Cc1cc(Cl)cc(C(=O)Nc2nc3c(C4CCN(C)CC4)cc(C(F)(F)F)cc3s2)c1O` [Example 94, 5-chloro-2-hydroxy-3-methyl-N-(4-(1-methylpiperidin-4-yl)-6-(trifluoromethyl)benzo[d]thiazol-2-yl)benzamide], for which, in data set [2] (setting [4]), the minimal effective concentration was less than 5 µM. Take `Cc1cc(Cl)cc(C(=O)Nc2nc3c(CN4CCOCC4)cc(C(F)(F)F)cc3s2)c1O` [Example 95, 5-chloro-2-hydroxy-3-methyl-N-(4-(morpholinomethyl)-6-(trifluoro-methyl)benzo[d]thiazol-2-yl)benzamide]: in data set [2] (setting [4]), the minimal effective concentration was less than 5 µM.

As for `Cc1cc(Cl)cc(C(=O)Nc2nc3c(CN(C)C)cc(C(F)(F)F)cc3s2)c1O` [Example 96, 5-chloro-N-(4-((dimethylamino)methyl)-6-(trifluoromethyl)benzo[d]thiazol-2-yl)-2-hydroxy-3-methylbenzamide], the minimal effective concentration in data set [2] (setting [4]) is less than 5 µM. `COc1cc(Cl)cc(C(=O)Nc2nc3ccc(C(F)(F)F)cc3s2)c1O` [Example 97, 5-chloro-2-hydroxy-3-methoxy-N-(6-(trifluoromethyl)benzo[d]thiazol-2-yl)benzamide]: the minimal effective concentration in data set [2] (setting [4]) is less than 5 µM. Moreover, the AUC at 24 h in data set [3] is 10000 to 30000 ng·h/mL.

Turning to `O=C(Nc1ccc(C(F)(F)F)nc1)c1cc(Cl)cc(C2CCOC2)c1O` (centres unmarked) [Example 98, 5-chloro-2-hydroxy-3-(tetrahydrofuran-3-yl)-N-(6-(trifluoromethyl)pyridin-3-yl)benzamide], the minimal effective concentration in data set [2] (setting [4]) was greater than 10 µM. With `COCOCc1cc(Cl)cc(C(=O)Nc2nc3ccc(C(F)(F)F)cc3s2)c1O` [drawing 255], the minimal effective concentration in data set [2] (setting [5]) turned out to be 2.5 µM. Take `COCCOCc1cc(Cl)cc(C(=O)Nc2nc3ccc(C(F)(F)F)cc3s2)c1O` [drawing 256]: the minimal effective concentration in data set [2] (setting [5]) amounted to 2.5 µM.

With `O=C(Nc1nc2ccc(C(F)(F)F)cc2s1)c1cc(Cl)ccc1O` [drawing 300], the C10%TMRE/Cmin-OCR entry in data set [1] is “[drawing 300]”.
